The subject of data set [1] is DU-145 prostate cancer cells. The data set is described as follows: Killing of DU-145 prostate cancer cells by BCNU combined with AGT inactivators (colony formation).
Method: (§1) Cells were treated for 2 h with AGT inactivator prior to exposure to BCNU.
Data set [2] deals with T1, O^6-alkylguanine-DNA alkyltransferase (AGT) (Homo sapiens, UniProt P16455).
T1 sequence (P16455 1-207): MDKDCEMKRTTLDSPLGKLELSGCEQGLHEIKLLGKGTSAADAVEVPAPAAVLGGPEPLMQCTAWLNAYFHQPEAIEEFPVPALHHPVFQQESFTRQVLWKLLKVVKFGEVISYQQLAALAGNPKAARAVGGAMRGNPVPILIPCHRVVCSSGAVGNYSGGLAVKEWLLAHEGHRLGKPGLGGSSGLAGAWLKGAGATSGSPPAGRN
The data set is described as follows: AGT inactivation in HT29 cell-free extract.
Method: (§2) The data represent the dose of compound required to produce 50% inactivation in cell-free extracts upon incubation for 30 min or in cells upon incubation for 4 hr.

Data set [3] has as its system MCF-71 breast cancer cells. The data set is described as follows: Killing of MCF-71 breast cancer cells by BCNU combined with AGT inactivators (colony formation).
Method: as §1
For data set [4], the target named is T1, O^6-alkylguanine-DNA alkyltransferase (AGT). The data set is described as follows: AGT inactivation in intact HT29 cells.
Method: as §2
The next data set concerns HT-29 colon cancer cells. The data set is described as follows: Killing of HT-29 colon cancer cells by BCNU combined with AGT inactivators (colony formation). The note with it: for Colony Formation per 1000 cells: HT-29.
[5] abbreviates: BCNU 40 μM, statement covers HT29, DU-145 and MCF-71 cells (Tables 3-5).

This is an account of results in patent US6436945B2, “Substituted O6-benzyl-8-aza-guanines” (The United States of America as represented by the of …, priority 1994, dated 2002).

Molecules are shown by their SMILES. pEC50: −log10 of the molar value. Some results are limits rather than exact numbers.

The pEC50 is the EC50 on a negative log10 scale, so that one unit is a factor of ten. Read a low pEC50 as a large EC50.

Method for HT-29 colon cancer cells: as §1

Consider `Nc1nc(OCc2ccccc2)c2nc(N)[nH]c2n1` [Compound 1a, 8-Amino-O^6-benzylguanine], for which the “Colony Formation per 1000 cells” value in data set [1] (inactivator 1 μM, BCNU 40 μM) is reported as 295 ± 45 per 1000 cells; in data set [1] (inactivator 10 μM, BCNU 40 μM) it was 435 ± 70 per 1000 cells; in data set [1] (inactivator 10 μM, BCNU none), 380 ± 36 per 1000 cells; in data set [3] (inactivator 10 μM, BCNU 40 μM) it was 95 ± 8 per 1000 cells; in data set [3] (inactivator 10 μM, BCNU none) it was 432 ± 36 per 1000 cells; in the data set with HT-29 colon cancer cells (inactivator 1 μM, BCNU 40 μM), 475 ± 26 per 1000 cells. For the same compound, the “Colony Formation per 1000 cells” value was 430 ± 41 per 1000 cells with HT-29 colon cancer cells (inactivator 10 μM, BCNU 40 μM) and 504 ± 30 per 1000 cells with HT-29 colon cancer cells (inactivator 10 μM, BCNU none). The pEC50 is 6.15 in data set [2] and 5.70 in data set [4]. In the data set with HT-29 colon cancer cells (setting [5]), the “enhancement of BCNU cytotoxicity, in words” value was “comparatively low activity”.
With `Cc1nc2c(OCc3ccccc3)nc(N)nc2[nH]1` [Compound 1b, O^6-benzyl-8-methylguanine], the “Colony Formation per 1000 cells” value in data set [1] (inactivator 1 μM, BCNU 40 μM) is 306 ± 157 per 1000 cells; in data set [1] (inactivator 10 μM, BCNU 40 μM), 50 ± 7 per 1000 cells; in data set [1] (inactivator 10 μM, BCNU none), 357 ± 43 per 1000 cells; in data set [3] (inactivator 10 μM, BCNU 40 μM), 2 ± 1 per 1000 cells; in data set [3] (inactivator 10 μM, BCNU none), 376 ± 76 per 1000 cells; in the data set on HT-29 colon cancer cells (inactivator 1 μM, BCNU 40 μM), 230 ± 51 per 1000 cells. Moreover, the “Colony Formation per 1000 cells” value in the data set on HT-29 colon cancer cells (inactivator 10 μM, BCNU 40 μM) is less than 1 per 1000 cells; in the data set with HT-29 colon cancer cells (inactivator 10 μM, BCNU none), 513 ± 76 per 1000 cells. Further, the pEC50 in data set [2] is 6.52; in data set [4], 7.00.
As for `O=NN(CCCl)C(=O)NCCCl` [BCNU, 1,3-bis(2-chloroethyl)-1-nitrosourea, reference compound], the “Colony Formation per 1000 cells” value was 394 ± 76 per 1000 cells in data set [1] (no inactivator, BCNU 40 μM); 364 ± 60 per 1000 cells in data set [3] (no inactivator, BCNU 40 μM); 442 ± 34 per 1000 cells in the data set with HT-29 colon cancer cells (no inactivator, BCNU 40 μM). In the data set with HT-29 colon cancer cells (statement covers HT29, DU-145 and MCF-71 cells (Tables 3-5)), the “effect of agent alone on cell colony number, in words” value was “no significant effect on cell colony number”.
For `CC(=O)Nc1nc(OCc2ccccc2)c2[nH]c(=O)[nH]c2n1` [Compound 4d, N^2-Acetyl-O^6-benzyl-8-oxoguanine], the results for the pEC50 in data set [2] and in data set [4] were 4.19 and 4.96, respectively.
Turning to `Nc1nc(N)nc(OCc2ccccc2)n1` [Compound 6, 2,4-Diamino-6-benzyloxy-s-triazine], the pEC50 was 5.40 in data set [2] and 6.00 in data set [4]. For the same compound, in data set [2] (comparison), the “AGT inactivating activity in HT29 cell-free extracts, in words” value is “considerably more active than 3b”.
With `Nc1nc(N)c([N+](=O)[O-])c(OCc2ccccc2)n1` [Compound 3e, 2,4-diamino-6-benzyloxy-5-nitropyrimidine], the “Colony Formation per 1000 cells” value is 59 ± 6 per 1000 cells in data set [1] (inactivator 1 μM, BCNU 40 μM); 2 ± 1 per 1000 cells in data set [3] (inactivator […], BCNU 40 μM); 45 ± 4 per 1000 cells in the data set with HT-29 colon cancer cells (inactivator 1 μM, BCNU 40 μM); less than 1 per 1000 cells with HT-29 colon cancer cells (inactivator […], BCNU 40 μM). For the same compound, the “enhancement of BCNU cytotoxicity, in words” value in the data set with HT-29 colon cancer cells (setting [5]) is reported as “similarly effective at a 4-fold lower dose”.
`Cc1nc(N)nc(OCc2ccccc2)c1[N+](=O)[O-]` [Compound 5b, 2-Amino-4-benzyloxy-6-methyl-5-nitropyrimidine]: the pEC50 in data set [2] is 6.40; in data set [4], 7.22. In addition, the “AGT inactivating activity in intact HT29 cells, in words” value in data set [4] (comparison) was “quite active in cells”.
Regarding `O=c1nc(OCc2ccccc2)c2[nH]c(=O)[nH]c2[nH]1` [Compound 4b, O^6-Benzyluric acid], the pEC50 is 4.60 in data set [2] and 4.35 in data set [4].
The corresponding values for `CNc1nc(OCc2ccccc2)c2nc[nH]c2n1` [Compound 4e, O^6-Benzyl-N^2-methylguanine] are 3.80 and 4.22.
`CN(C)c1nc(OCc2ccccc2)c2nc[nH]c2n1` [Compound 4f, O^6-Benzyl-N^2,N^2-dimethylguanine]: the pEC50 was 3.70 in data set [2] and 3.96 in data set [4].
Turning to `Nc1ncnc(OCc2ccccc2)c1[N+](=O)[O-]` [Compound 3a, 4-Amino-6-benzyloxy-5-nitropyrimidine], the negative-log EC50 (pEC50) in data set [2] was 4.55; in data set [4], 5.10.
